Source: US6355799B1, “Substituted benzene compounds, process for their preparation, and herbicidal and defoliant compositions containing them” (ISK Americas Incorporated, priority 1997, dated 2002)

Tests used:
Test in all cases: Pre-emerge test, greenhouse herbicide activity screening
Format in all cases: in vivo
[1] = tested on: redroot pigweed (Amaranthus retroflexus, AMARE); settings: pre-emerge; for Pre-emerge Herbicidal Activity AMARE (phytotoxicity rating, scale 0-100): rated 14 days after application, 0 = no damage, 100 = complete death; for pest or weed control at 63 g/ha / pest or weed control at 250 g/ha: Amaranthus retroflexus, pre-emergence, 336 h, phytotoxicity rating 0-100 at 14 days after application, read-out: Pre-emerge Herbicidal Activity AMARE; for pest or weed control at 63 g/ha: rate 63 g ai/ha; for pest or weed control at 250 g/ha: rate 250 g ai/ha
Procedure, shortened: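 Sandy loam pots; pre-emerge: sown 1 d pre-spray, surface-watered after, then bottom-watered. Post-emerge: sown 8–21 d before, 2–3 leaf stage, + 0.25% v/v NIS, bottom-watered. Acetone, 187 l/ha track spray, 15–1000 g ai/ha. 0–100 injury score, day 14.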

[2] = tested on: green foxtail (Setaria viridis, SETVI); settings: pre-emerge; for Pre-emerge Herbicidal Activity SETVI (phytotoxicity rating, scale 0-100): rated 14 days after application, 0 = no damage, 100 = complete death; for pest or weed control at 63 g/ha / pest or weed control at 250 g/ha: Setaria viridis, pre-emergence, 336 h, phytotoxicity rating 0-100 at 14 days after application, read-out: Pre-emerge Herbicidal Activity SETVI; for pest or weed control at 63 g/ha: rate 63 g ai/ha; for pest or weed control at 250 g/ha: rate 250 g ai/ha
Procedure, shortened: (§1)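 Herbicidal damage is scored 0 (none) to 100 (complete plant death) two weeks after a simulated field spray. Rates span 15–1000 g ai/ha, delivered in acetone at 187 l/ha. For post-emergence treatments, plants have 2–3 leaves and the spray carries 0.25% v/v non-ionic surfactant.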

[3] = tested on: johnsongrass (Sorghum halepense, SORHA); settings: pre-emerge; for Pre-emerge Herbicidal Activity SORHA (phytotoxicity rating, scale 0-100): rated 14 days after application, 0 = no damage, 100 = complete death; for pest or weed control at 63 g/ha / pest or weed control at 250 g/ha: Sorghum halepense, pre-emergence, 336 h, phytotoxicity rating 0-100 at 14 days after application, read-out: Pre-emerge Herbicidal Activity SORHA; for pest or weed control at 63 g/ha: rate 63 g ai/ha; for pest or weed control at 250 g/ha: rate 250 g ai/ha
Procedure, shortened: as §1

[4] = tested on: lambsquarters (Chenopodium album, CHEAL); settings: pre-emerge; for Pre-emerge Herbicidal Activity CHEAL (phytotoxicity rating, scale 0-100): rated 14 days after application, 0 = no damage, 100 = complete death; for pest or weed control at 63 g/ha / pest or weed control at 250 g/ha: Chenopodium album, pre-emergence, 336 h, phytotoxicity rating 0-100 at 14 days after application, read-out: Pre-emerge Herbicidal Activity CHEAL; for pest or weed control at 63 g/ha: rate 63 g ai/ha; for pest or weed control at 250 g/ha: rate 250 g ai/ha
Procedure, shortened: as §1

[5] = tested on: velvetleaf (Abutilon theophrasti, ABUTH); settings: pre-emerge; for Pre-emerge Herbicidal Activity ABUTH (phytotoxicity rating, scale 0-100): rated 14 days after application, 0 = no damage, 100 = complete death; for pest or weed control at 63 g/ha / pest or weed control at 250 g/ha: Abutilon theophrasti, pre-emergence, 336 h, phytotoxicity rating 0-100 at 14 days after application, read-out: Pre-emerge Herbicidal Activity ABUTH; for pest or weed control at 63 g/ha: rate 63 g ai/ha; for pest or weed control at 250 g/ha: rate 250 g ai/ha
Procedure, shortened: as §1

Row | SMILES | Pre-emerge Herbicidal Activity AMARE (phytotoxicity rating, scale 0-100) ([1]; 63 g ai/ha) | Pre-emerge Herbicidal Activity AMARE (phytotoxicity rating, scale 0-100) ([1]; 250 g ai/ha) | Pre-emerge Herbicidal Activity SETVI (phytotoxicity rating, scale 0-100) ([2]; 63 g ai/ha) | Pre-emerge Herbicidal Activity SETVI (phytotoxicity rating, scale 0-100) ([2]; 250 g ai/ha) | Pre-emerge Herbicidal Activity SORHA (phytotoxicity rating, scale 0-100) ([3]; 63 g ai/ha) | Pre-emerge Herbicidal Activity SORHA (phytotoxicity rating, scale 0-100) ([3]; 250 g ai/ha) | Pre-emerge Herbicidal Activity CHEAL (phytotoxicity rating, scale 0-100) ([4]; 63 g ai/ha) | Pre-emerge Herbicidal Activity CHEAL (phytotoxicity rating, scale 0-100) ([4]; 250 g ai/ha) | Pre-emerge Herbicidal Activity ABUTH (phytotoxicity rating, scale 0-100) ([5]; 63 g ai/ha) | Pre-emerge Herbicidal Activity ABUTH (phytotoxicity rating, scale 0-100) ([5]; 250 g ai/ha) | pest or weed control at 63 g/ha [1] | pest or weed control at 250 g/ha [1] | pest or weed control at 63 g/ha [2] | pest or weed control at 250 g/ha [2] | pest or weed control at 63 g/ha [3] | pest or weed control at 250 g/ha [3] | pest or weed control at 63 g/ha [4] | pest or weed control at 250 g/ha [4] | pest or weed control at 63 g/ha [5] | pest or weed control at 250 g/ha [5]
1 | Cn1c(C(F)(F)F)cc(=O)n(-c2c(F)cc(Cl)c(OC(F)F)c2N)c1=O [Compound 1-38, 3-(2-amino-4-chloro-3-difluoromethoxy-6-fluorophenyl)-1-methyl-6-trifluoromethyl-2,4(1H, 3H)-pyrimidinedione] | 100 | 100 | 100 | 100 | 90 | 100 | 100 | 100 | 100 | 100 | – | – | – | – | – | – | – | – | – | –
2 | CC(C)Oc1c(Cl)cc(F)c(-n2nnn(CCCF)c2=O)c1N [Compound 5-18, 1-(2-amino-4-chloro-6-fluoro-3-isopropyloxyphenyl)-4-(3fluoropropyl)-1,4-dihydro-5-oxo-5H-tetrazole] | – | – | – | – | – | – | – | – | – | – | 30% | 0% | 95% | 90% | 40% | 30% | 70% | 95% | 40% | 70%
3 | COc1c(Cl)cc(F)c(-n2nc(C)n(C(F)F)c2=O)c1NC(=O)c1ccc2ccccc2c1 [Compound 6-15] | – | – | – | – | – | – | – | – | – | – | 100% | 100% | 95% | 100% | 50% | 100% | 100% | 100% | 100% | 100%
4 | Cc1nn(-c2c(Cl)cc(Cl)cc2NC(=O)c2ccc3ccccc3c2)c(=O)n1C(F)F [Compound 6-16] | – | – | – | – | – | – | – | – | – | – | 30% | 50% | 60% | 90% | – | – | 100% | 100% | 10% | 20%
5 | COc1c(Cl)cc(Cl)c(-n2nc(C)n(C(F)F)c2=O)c1NC(=O)c1ccc2ccccc2c1 [Compound 6-17] | – | – | – | – | – | – | – | – | – | – | 90% | 100% | 70% | 99% | – | – | 100% | 100% | 30% | 95%
6 | Cc1nn(-c2c(Cl)cc(Cl)c(N)c2N)c(=O)n1C(F)F [Compound 6-20] | – | – | – | – | – | – | – | – | – | – | 10% | 0% | 0% | 0% | 0% | 0% | 50% | 30% | 0% | 0%
